This is an account of results in patent US11974988B2, “Neuroprotective compositions and methods of using the same” (The Board of Supervisors of Louisiana State Univer …, priority 2018, dated 2024).

Values after ≈ are worked out from the molar mass of the structure shown. “Also recorded” adds a separate entry of the source. Where two headings read alike, the source gives them in different places.

Series [1] in a line: SKA-41 concentrations in plasma and brain by LC/MS after i.p. injection. Type of series: in vivo. Particulars: rat; for concentration at 1 h: male, intraperitoneal, 10 mg/kg i.p., n=3 rats. As to the method: Twelve week-old male Sprague-Dawley rats were purchased from Charles River Laboratories (Wilmington, Mass.) and housed in microisolator cages with rodent chow and autoclaved water ad libitum. All experiments were in accordance with National Institutes of Health guidelines and approved by the University of California, Davis Institutional Animal Care and Use Committee.
SKA-41 is dissolved in Miglyol 812 neutral oil (caprylic/capric triglyceride; Trade name Neobee M5, Spectrum Chemicals, Gardena, Calif., USA) at 1 mg/mL and injected intraperitoneally at 10 mg/kg. After 1 hour, rats (n=3) are subjected to cardiac puncture under deep isoflurane anesthesia and then sacrificed before removing the brain. Blood is collected into EDTA blood sample collection tubes. Plasma is separated by centrifugation and samples stored at −80° C. pending analysis.
Commercial SPE cartridges (Hypersep C18, 100 mg, 1 mL) are purchased from Thermo Scientific (Houston, Tex., U.S.A). Before the extraction, cartridges are conditioned with acetonitrile, 2×1 mL, followed by water 2×1 mL. After loading the SPE cartridges with plasma samples, they are washed with 2×1 mL of 20% acetonitrile in water followed by elution with a 2×1 mL of acetonitrile. Elute fractions are collected and evaporated to dryness. The residues are reconstituted to solution using appropriate volume of acetonitrile and used for LC-MS analysis.
Brain samples are treated as following: 4.0 mL of acetonitrile is added to 200 mg of tissue sample and homogenized thoroughly using a T25 digital ULTRA-TURRAX® homogenizer (IKA® Works Inc., NC, USA). The homogenized samples are centrifuged for 10 min at 4000 rpm, the supernatant is separated and evaporated under a constant air flow as described above. The residues are reconstituted using appropriate volume of acetonitrile. The reconstituted material is loaded onto the preconditioned SPE cartridges it is then eluted with 2 mL of acetonitrile. Load and elute fractions are collected and evaporated to dryness. The residues are reconstituted to solution with 200 μL acetonitrile and used for LC-MS analysis. […]
Using Heated electrospray ionization source (HESI II) in positive ion mode, capillary temperature 300° C., vaporizer temperature: 250° C., spray voltage 3000 V, sheath gas pressure (N2) 30 units, auxiliary gas pressure (N2) 5 units, ion sweep gas pressure (N2) 1 unit, SKA-41 was analyzed by the selective reaction monitoring (SRM) transition of its molecular ion peak 261.0 (M+1)^+ into 175.0 and 133.0 m/z. An 8-point calibration curve spanning a concentration range from 50 nM to 10 μM range was developed for quantification.

Series [2] can be described thus: Max. solubility (Table 1). Type of series: physicochemical.
For series [3], the system named is hippocampal neurons of KA-treated rats. In words: KA-induced status epilepticus model, hippocampal neurodegeneration (fluoro-jade B, NeuN). Type of series: in vivo, rat. Particulars: rat, in vivo.
Source text: (§1) In Aim 3, we treat male and female rats with the ‘best’ SKA-41 derivatives before and after injection of kainic acid (KA). The KA-induced status epilepticus (SE) model is a well-validated model of temporal lobe epilepsy (TLE), the major form of human epilepsy. The model allows studying the different stages between SE and the development of TLE including SE, the acute and latent stages of epileptogenesis and chronic epilepsy. The excitotoxin KA causes excessive Glu release in the hippocampus and selective destruction of inhibitory SOM interneurons in the hilus region of the dentate gyrus (DG) and loss of pyramidal neurons in the CA3 (esp), and also CA1 regions. We scaled up synthesis of SKA-41, 219, and SKA-378. The identity of the compounds was confirmed by ^1H- and ^13C-NMR and high-resolution mass spectrometry. Compound purity is determined by HPLC and no compounds with less then 98% purity were used. […] Rats were processed for immunohistochemistry 3 days after KA administration. As expected, we find that KA treatment induces significant neural damage (green cells) in the CA3 pyramidal neuron subfield and in neurons in the hilus (FIG. 20 Panel A), which are SOM containing GABAergic interneurons (not shown). Fluoro jade B is a high affinity fluorescent marker used for the localization of neuronal degeneration. […] In studies, we have also administered SKA-378 (30 mg/kg) one hr after the onset of stage IV seizures (SE), followed by another injection at 4 hr post SE and then once each day for 3 days. We find that SKA-378 is also neuroprotective under these conditions.
as §1, with “with” for “with the ‘best’”, “(esp)” for “(esp),”, “were” for “was”, “We” for “As expected, we”, “23” for “20”, “Fluoro-jade” for “Fluoro jade”

The subject of the next series is KCa channels. Particulars: cited from earlier work.
For series [4], the system named is activity-regulated Gln/MeAIB transport (SNAT activity) in hippocampal neurons. In words: Activity-regulated (spontaneous, 4-AP- or K+-stimulated) [14C]-MeAIB transport in primary hippocampal neurons. Type of series: cell-based, rat. More on the design: block of transport activity: dose or concentration left out as unconfirmed.

A word on the solubility: it is how much of the substance goes into solution per volume. Turning to `Nc1nc(-c2ccc(OC(F)(F)F)cc2)cs1` [SKA-41, 4-(4-(Trifluoromethoxy)phenyl)thiazol-2-amine], the Kp at 1 h in series [1] (Sprague-Dawley, brain/plasma, ip, 10 mg/kg i.p. in Miglyol 812, 1 h, 3 male rats, read-out: brain/plasma ratio) is about 7. Further, the concentration at 1 h in series [1] (Sprague-Dawley, brain, read-out: brain concentration, average) is 12.6 µM; in series [1] (Sprague-Dawley, plasma, read-out: plasma concentration, average), 1.77 µM. The “brain penetration (brain/plasma ratio) relative to riluzole” value in series [1] (in vivo) is “seven times higher”. Also, in series [2], the solubility amounted to 50 µM (≈ 13 µg/mL). Further, the “neuroprotection against Glu-induced excitotoxicity in the KA model of TLE” value in series [3] is reported as “neuroprotective”. Further, the “effect on KCa channels / KCa currents” value was “no effect” in the series with KCa channels and “no effect; also recorded: inactive” in the series on KCa channels (listed as SKA41). In addition, the “block of transport activity” value in series [4] was about 90%. Also, the inhibition at 10 µM in series [4] (Rattus norvegicus, Hippocampal neuron, at 10 μM, read-out: block / inhibition of transport activity) was about 90%. Besides, the IC50 in series [4] (Rattus norvegicus, Hippocampal neuron, hippocampal neurons in vitro, 14C-MeAIB 20 μM, read-out: IC50 to inhibit activity-regulated Gln/MeAIB transport) was about 2 µM. Moreover, in series [4] (Table 1: SKA-41, and active and inactive derivatives), the “Active (annotation beside the compound name: active vs inactive derivatives)” value is reported as “SKA-41 Active CAS no. 436151-95-0 (Oakwood Chemical)”. The “inhibition of spontaneous activity-regulated 14C-MeAIB transport, in words” value in series [4] (screens, 10 μM, GABA 2 mM) is listed as “active; also recorded: blocked spontaneous transport activity; also recorded: inhibited spontaneous transport activity”.
